Key:
Assay in all cases: relative viability (nuclei count vs DMSO), 5 days (fraction); higher = more cells survive
Dasatinib + Vorinostat = compound: Cc1nc(Nc2ncc(C(=O)Nc3c(C)cccc3Cl)s2)cc(N2CCN(CCO)CC2)n1 [Dasatinib] + O=C(CCCCCCC(=O)Nc1ccccc1)NO [Vorinostat] (partner 1 µM)
Outline: (§1)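 Relative viability divides the nuclei count in treated wells by that in vehicle wells. Lung cancer cell lines were seeded in 1536-well plates, dosed by pin tool the next day, and fixed and stained after 5 days in one step with final 0.05% Triton X-100, 1% formaldehyde and 1 ug/ml Hoechst. Dosing was a single drug or a fixed anchor-drug dose plus five library-drug doses (not always all listed) in √10 steps, and values are medians of duplicate plates imaged at 4×.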

ALW-II-49-7 + Tozasertib = compound: Cc1ccc(C(=O)Nc2cccc(C(F)(F)F)c2)cc1Nc1cncc(C(N)=O)c1 [ALW-II-49-7] + Cc1cc(Nc2cc(N3CCN(C)CC3)nc(Sc3ccc(NC(=O)C4CC4)cc3)n2)n[nH]1 [Tozasertib] (partner 0.1 µM)
Outline: as §1

Dasatinib + Decitabine = compound: Cc1nc(Nc2ncc(C(=O)Nc3c(C)cccc3Cl)s2)cc(N2CCN(CCO)CC2)n1 [Dasatinib] + Nc1ncn([C@H]2C[C@H](O)[C@@H](CO)O2)c(=O)n1 [Decitabine] (partner 2 µM)
Outline: as §1

Dasatinib + Lapatinib = compound: Cc1nc(Nc2ncc(C(=O)Nc3c(C)cccc3Cl)s2)cc(N2CCN(CCO)CC2)n1 [Dasatinib] + CS(=O)(=O)CCNCc1ccc(-c2ccc3ncnc(Nc4ccc(OCc5cccc(F)c5)c(Cl)c4)c3c2)o1 [Lapatinib] (partner 2 µM)
Outline: as §1

Cell Line | relative viability (Dasatinib + Vorinostat; first compound 0.005 µM) | relative viability (Dasatinib + Vorinostat; first compound 0.01581 µM) | relative viability (Dasatinib + Vorinostat; first compound 0.05 µM) | relative viability (Dasatinib + Vorinostat; first compound 0.1581 µM) | relative viability (Dasatinib + Vorinostat; first compound 0.5 µM) | relative viability (ALW-II-49-7 + Tozasertib; first compound 0.08 µM) | relative viability (ALW-II-49-7 + Tozasertib; first compound 0.253 µM) | relative viability (ALW-II-49-7 + Tozasertib; first compound 0.8 µM) | relative viability (ALW-II-49-7 + Tozasertib; first compound 2.53 µM) | relative viability (ALW-II-49-7 + Tozasertib; first compound 8 µM) | relative viability (Dasatinib + Decitabine; first compound 0.005 µM) | relative viability (Dasatinib + Decitabine; first compound 0.01581 µM) | relative viability (Dasatinib + Decitabine; first compound 0.05 µM) | relative viability (Dasatinib + Decitabine; first compound 0.1581 µM) | relative viability (Dasatinib + Decitabine; first compound 0.5 µM) | relative viability (Dasatinib + Lapatinib; first compound 0.005 µM) | relative viability (Dasatinib + Lapatinib; first compound 0.01581 µM) | relative viability (Dasatinib + Lapatinib; first compound 0.05 µM) | relative viability (Dasatinib + Lapatinib; first compound 0.1581 µM) | relative viability (Dasatinib + Lapatinib; first compound 0.5 µM)
NCI-H1651 | 0.546 | 0.433 | 0.481 | 0.465 | 0.359 | 0.608 | 0.852 | 0.543 | 0.566 | 0.377 | 0.629 | 0.507 | 0.558 | 0.585 | 0.473 | 0.864 | 0.573 | 0.648 | 0.625 | 0.489
NCI-H1666 | 1.2 | 1.06 | 1.23 | 1.07 | 0.761 | 0.609 | 0.603 | 0.569 | 0.612 | 0.498 | 0.725 | 0.691 | 0.73 | 0.656 | 0.521 | 0.582 | 0.482 | 0.522 | 0.447 | 0.224
NCI-H1734 | 0.721 | 0.71 | 0.703 | 0.529 | 0.496 | 0.263 | 0.278 | 0.255 | 0.24 | 0.232 | 0.508 | 0.48 | 0.533 | 0.412 | 0.321 | 1.02 | 0.755 | 0.894 | 0.508 | 0.531
NCI-H1755 | 0.655 | 0.718 | 0.568 | 0.421 | 0.374 | 0.654 | 0.558 | 0.463 | 0.483 | 0.466 | 0.682 | 0.641 | 0.602 | 0.509 | 0.323 | 0.957 | 0.714 | 0.749 | 0.622 | 0.246
NCI-H1793 | 0.56 | 0.571 | 0.46 | 0.357 | 0.344 | 0.366 | 0.301 | 0.338 | 0.296 | 0.321 | 0.504 | 0.427 | 0.295 | 0.328 | 0.323 | 0.587 | 0.46 | 0.349 | 0.622 | 0.58
NCI-H1915 | 0.539 | 0.483 | 0.446 | 0.374 | 0.119 | 0.398 | 0.457 | 0.42 | 0.341 | 0.277 | 0.291 | 0.249 | 0.231 | 0.224 | 0.144 | 0.939 | 0.892 | 0.87 | 0.382 | 0.242
NCI-H1944 | 0.573 | 0.527 | 0.452 | 0.196 | 0.169 | 0.234 | 0.249 | 0.251 | 0.246 | 0.254 | 0.439 | 0.39 | 0.36 | 0.272 | 0.189 | 0.598 | 0.736 | 0.577 | 0.334 | 0.268
NCI-H1975 | 0.668 | 0.613 | 0.654 | 0.356 | 0.299 | 0.743 | 1.05 | 0.667 | 0.508 | 0.243 | 0.377 | 0.384 | 0.368 | 0.266 | 0.224 | 0.779 | 0.701 | 0.595 | 0.419 | 0.23
NCI-H1993 | 0.722 | 0.73 | 0.692 | 0.394 | 0.435 | 0.524 | 0.605 | 0.567 | 0.629 | 0.632 | 0.503 | 0.477 | 0.67 | 0.456 | 0.407 | 0.761 | 0.771 | 0.776 | 0.731 | 0.737
NCI-H2009 | 0.75 | 0.681 | 0.762 | 0.426 | 0.133 | 0.771 | 0.804 | 0.707 | 0.653 | 0.562 | 0.403 | 0.384 | 0.314 | 0.216 | 0.122 | 1.13 | 1 | 0.96 | 0.305 | 0.151
NCI-H2023 | 0.681 | 0.688 | 0.568 | 0.561 | 0.429 | 0.257 | 0.464 | 0.276 | 0.259 | 0.189 | 0.262 | 0.226 | 0.216 | 0.214 | 0.209 | 0.584 | 0.703 | 0.742 | 0.758 | 0.64
NCI-H2085 | 0.831 | 0.632 | 0.567 | 0.259 | 0.202 | 0.753 | 0.895 | 0.787 | 0.743 | 0.568 | 0.616 | 0.424 | 0.385 | 0.264 | 0.25 | 0.666 | 0.624 | 0.417 | 0.199 | 0.182
NCI-H2087 | 0.954 | 0.494 | 0.778 | 0.714 | 0.156 | 0.222 | 0.266 | 0.271 | 0.162 | 0.16 | 0.301 | 0.336 | 0.259 | 0.145 | 0.113 | 1.03 | 0.839 | 0.95 | 1.09 | 0.605
NCI-H2126 | 0.796 | 0.597 | 0.755 | 0.521 | 0.312 | 0.856 | 0.885 | 0.826 | 0.197 | 0.786 | 0.567 | 0.51 | 0.553 | 0.437 | 0.351 | 0.748 | 0.584 | 0.669 | 0.525 | 0.328
NCI-H2170 | 0.797 | 0.72 | 0.743 | 0.467 | 0.334 | 0.724 | 0.817 | 0.73 | 0.618 | 0.767 | 0.439 | 0.422 | 0.392 | 0.344 | 0.225 | 0.264 | 0.236 | 0.271 | 0.259 | 0.216
NCI-H2347 | 0.422 | 0.298 | 0.363 | 0.263 | 0.238 | 0.422 | 0.543 | 0.463 | 0.563 | 0.57 | 0.562 | 0.538 | 0.459 | 0.322 | 0.265 | 0.872 | 0.951 | 1.04 | 0.691 | 0.386
